# Test results from US20230028293A1, “MULTIPLE MYELOMA COMBINATION THERAPIES BASED ON PROTEIN TRANSLATION INHIBITORS AND IMMUNOMODULATORS” (The Regents of the University of Colorado, a body corporate, priority 2019, published 2023).
# pEC50: −log10 of the molar value. “Also recorded” adds a separate entry of the source.
# Tests used:
# [1] = system: U266, H929, MM1.S, MM1.R and RPMI-8226 MM cell lines; experiment: MM cell line proliferation / cytotoxicity assay (CellTiter-Glo or MTS); type: cell-based; details: range over five MM cell lines, 96 h incubation; read-out: EC50 of inhibition of cell proliferation
# Protocol: Omacetaxine was tested in MM cell lines in vitro and in MM patient bone marrow aspirates ex vivo. The reported cytotoxicity of omacetaxine was verified in cell culture using the U266, H929, MM1.S, MM1.R and RPMI-8226 MM cell lines. […] In a timecourse study, omacetaxine-mediated induction of apoptosis started at 2 h, and cell death began after 24 h (FIGS. 1B, 1C, and 2A).
# (§1) Either CellTiter-Glo Luminescent Cell Viability or CellTiter 96 AQueous MTS Cell Proliferation assay (Promega, Madison Wis.) were used to generate dose response curves of myeloma cell line proliferation treated with various anti-myeloma agents. Working solutions of CellTiter-Glo or CellTiter AQueous reagent were prepared per manufacturer instructions. Cells were combined with drug of interest at a concentration of 50,000 cells/well and incubated in 96-well culture plates at 37° C. for 96 h. After the incubation, the viability or proliferation results were obtained via Vmax Kinetic Microplate Reader (Molecular Devices, Sunnyvale Calif.). Cell line toxicity was also measured using high throughput flow cytometry.
# [2] = system: BCL2; experiment: Quantitative intracellular flow cytometry of BCL2; type: cell-based; details: 50 nM, 6 h
# Protocol: Quantitative flow cytometry was used to measure MCL1 and BCL2 densities per cell. Anti-MCL1 and anti-BCL2 antibodies were labeled with Alexa Fluor 647 (Molecular Probes/life Technologies) according to manufacturer's instructions. Intracellular staining of MCL1 and BCL2 was conducted following permeabilization with the Cytofix/Cytoperm kit (BD). Mean fluorescence intensity was converted to molecules of equivalent soluble fluorochrome (MESF) by generating a standard curve with Quantum™ beads (Bangs Labs, Fishers, Ind.). The fluorophore-to-antibody ratio of the labeled antibodies was determined using Simply Cellular® anti-mouse IgG beads (Bangs Labs). Finally, conversion of MESF to cell surface antigen density was calculated by dividing by the fluorophore-to-antibody ratio.
# [3] = system: luc-MM1.S cells in NSG mice; experiment: In vivo protein translation (puromycin incorporation) in luc-MM1.S xenograft; details: 1, 2 or 3 mg/kg IP; greatest effect at 3 mg/kg
# Protocol: To extend the findings to an in vivo model, the effects of omacetaxine were examined using a firefly luciferase-expressing myeloma cell line, MM1.S (luc-MM1.S) to generate xenografts in NSG mice. The pharmacodynamics of omacetaxine were studied in this model. Mice were injected with luc-MM1.S cells and allowed to establish disease, followed by treatment with 1, 2, or 3 mg/kg omacetaxine, or with the vehicle control by intraperitoneal (IP) injection, followed by puromycin injection one hour later, and sacrificed 1.5 hours later, with bone marrow harvest and […] incorporation by flow cytometry (FIG. 9A).
# Protein synthesis levels were determined in vitro utilizing the puromycin analog O-propargyl-puromycin (OP-Puro) in the protein synthesis assay kit (Cayman Chemical) according to manufacturer instructions. […]
# For in vivo assessment of omacetaxine, 5×10^5 MM1.S cells stably expressing firefly luciferase were injected intravenously into NSG mice (Jackson Labs, Bar Harbor, Me.) to generate an orthometastatic MM xenograft model. […] Tumor status was assessed by BLI, and the results were analyzed by Living Image (PerkinElmer). Following treatment, the mice were continuously monitored for survival endpoints.
# [4] = system: MM1.S cells; experiment: Whole cell proteomics of treated MM cells; type: cell-based; details: omacetaxine 4 h, pomalidomide 24 h, staggered combination
# Protocol: Whole cell proteomics of MM cells treated with the omacetaxine/pomalidomide combination were compared to single agent treatments at a timepoint before substantial apoptosis or cell death began. Although omacetaxine is rapidly cytotoxic to MM cells, the cytotoxicity of pomalidomide occurs after a longer delay, with apoptosis and cell death beginning at 24 h (FIG. 10A). […] For proteomics, MM1.S cells were treated in triplicate with omacetaxine for 4 h, pomalidomide for 24 h, or the staggered combination treatment and compared to untreated controls.
# Cells were lysed with RIPA buffer (Thermo Fisher Scientific) and digested according to the FASP protocol. Recovered peptides were dried, desalted, and concentrated on Thermo Scientific Pierce C18 Tips. Cell lysates were analyzed using an Orbitrap Fusion mass spectrometer connected to an EASY-nLC 1200 system (Thermo Fisher Scientific) with a nanoelectrospray ion source. Data was acquired using the Xcaliburm (version 4.1) software. MS/MS spectra were extracted, and Proteome Discoverer Software (ver. 2.1.0.62) was used to convert the raw data into mgf files. The files were then searched against a human database using an in-house Mascot server (Version 2.6, Matrix Science). Scaffold (version 4.8, Proteome Software, Portland, Oreg.) was used to validate MS/MS based peptide and protein identifications. […]
# [5] = system: MM1.S cells; experiment: Timecourse of apoptosis and cell death by Annexin V and DAPI flow cytometry; type: cell-based
# From the text: FIG. 2A depicts the timecourse of induction of apoptosis and cell death by omacetaxine in MM1.S cells as measured by Annexin V and DAPI staining by flow cytometry.
# FIG. 10A depicts the timecourse of induction of apoptosis and cell death by pomalidomide in MM1.S cells as measured by annexin V and DAPI staining by flow cytometry.
# [6] = system: MM cell lines; experiment: Two-drug combination matrix in MM cell lines, ZIP synergy; type: cell-based
# [7] = system: MM cell lines; experiment: as above; type: cell-based; remark: listed apart in the source
# Protocol: In this example, possible candidates for use in combination with omacetaxine were examined, focusing on those that are currently clinically available. Omacetaxine was applies in combination with various anti-myeloma agents to MM cell lines Amo-1, L363, and U266 in two-drug combination matrices, with cell viability being measured after 96 h incubation. […] The […] for synergy of omacetaxine with Len and Pom were 13.89 and 11.24, respectively, with a broad range of concentrations showing a productive interaction (FIGS. 6B and 6D).
# as §1
# Drug combination studies were set up using a full matrix design with myeloma cell lines or primary samples. Synergy was calculated using ZIP delta score via the SnergyFinder online tool (synergyfinder.fimm.fi). Combination index values were calculated using the CompuSyn software (ComboSyn Inc).
structure (smiles),measurement,setting,value
"COC(=O)C[C@](O)(CCCC(C)(C)O)C(=O)O[C@@H]1C(OC)=C[C@]23CCCN2CCc2cc4c(cc2[C@H]13)OCO4 [omacetaxine, Omacetaxine mepesuccinate]",pEC50,[1],7.46 to 7.82
same,Bcl-2 level in myeloma cells,[2],does not decrease
same,protein translation rate in luc-MM1.S cells in vivo,[3],dose-dependent decrease
same,proteins among the most downregulated versus untreated controls,[4],IGL1 and JCHAIN
same,time at which cell death began,[5],24 h
same,time at which induction of apoptosis started,[5],2 h
same,synergy with CC-220,[6]; H929 cells,synergistic
same,combination with dexamethasone,[6]; MM.1S cells,synergistic
same,ZIP δ-score for synergy with Len,"[6]; combination with lenalidomide, MM.1S cells, 96 h",13.89
same,ZIP δ-score for synergy with Pom,"[6]; omacetaxine with pomalidomide, MM.1S cells, 96 h",11.24
same,synergy with the PI bortezomib,"[6]; three MM cell lines (U266, MM.1S, H929)",lack of synergy; also recorded: no significant enhanced activity
same,combination with dexamethasone versus single agent omacetaxine,[7]; L363 and U266 cells,decreased activity
same,synergy with lenalidomide (cell viability),"[7]; combination with Len, 96 h",synergistic in all cell lines tested
same,synergy with pomalidomide (cell viability),"[7]; omacetaxine combined with Pom, 96 h",synergistic in all cell lines tested
same,"synergy with dexamethasone, over cell lines tested",[7]; three MM cell lines,synergistic in only ⅓ MM cell lines tested
